Source: US6160004A, “C-10 carbon-substituted artemisinin-like trioxane compounds having antimalarial, antiproliferative and antitumor activities” (priority 1998, dated 2000)
Read-outs that look alike come from different tables or passages of the source.

What was measured:
[1] = tested on: MALME-3M; assay: cells; format: cell-based; details: Homo sapiens, MALME-3M, melanoma, 48 h
[2] = tested on: KM12; assay: cells; format: cell-based; details: Homo sapiens; for GI50: read-out: Log10 GI50 (converted)
[3] = tested on: HOP-62; assay: cells; format: cell-based; details: Homo sapiens, HOP-62, non-small cell lung cancer, 48 h
[4] = tested on: MCF7/ADR-RES; assay: cells; format: cell-based; details: Homo sapiens
[5] = tested on: SK-MEL-2; assay: cells; format: cell-based; details: Homo sapiens, SK-MEL-2, 48 h, read-out: Log10 LC50 (converted)
[6] = tested on: MDA-MB231/ATCC; assay: cells; format: cell-based; details: Homo sapiens, MDA-MB-231, breast cancer, 48 h
[7] = tested on: RXF 393; assay: cells; format: cell-based; details: Homo sapiens; for IC (TGI): RXF 393, renal cancer, 48 h, read-out: Log10 TGI
[8] = tested on: SNB-75; assay: cells; format: cell-based; details: Homo sapiens; for CC50: read-out: Log10 LC50 (converted); for GI50: read-out: Log10 GI50 (converted)
[9] = tested on: SF-539; assay: cells; format: cell-based; details: Homo sapiens, SF-539, 48 h, read-out: Log10 LC50 (converted)
[10] = tested on: SF-295; assay: cells; format: cell-based; details: Homo sapiens
[11] = tested on: MOLT-4; assay: cells; details: Homo sapiens; for IC50: MOLT-4, read-out: concentration for primary growth inhibition (PG +50); for GI50: read-out: Log10 GI50 (converted)
[12] = tested on: NCI-H226; assay: cells; format: cell-based; details: Homo sapiens
[13] = tested on: UACC-62; assay: cells; format: cell-based; details: Homo sapiens, UACC-62, melanoma, 48 h; for GI50: read-out: Log10 GI50 (converted); for IC (TGI): read-out: Log10 TGI
[14] = tested on: LOX IMVI; assay: cells; format: cell-based; details: Homo sapiens, 48 h, read-out: Log10 GI50 (converted)
[15] = tested on: chloroquine-sensitive P. falciparum (NF54); assay: In vitro antimalarial activity ([3H]hypoxanthine incorporation); format: cell-based; details: Plasmodium falciparum; chloroquine-sensitive P. falciparum NF54, in vitro
[16] = tested on: NCI-H522; assay: cells; format: cell-based; details: Homo sapiens, NCI-H522, 48 h
[17] = tested on: MDA-MB435; assay: NCI 60 cell line panel screening assay (SRB), MDA-MB435; format: cell-based; details: Homo sapiens, MDA-MB-435, 48 h
[18] = tested on: PC-3; assay: cells; format: cell-based; details: Homo sapiens, PC-3, prostate cancer, 48 h
[19] = tested on: SW-620; assay: NCI 60 cell line panel screening assay (SRB), SW-620; format: cell-based; details: Homo sapiens; for GI50: read-out: Log10 GI50 (converted)
[20] = tested on: A549/ATCC; assay: NCI 60 cell line panel screening assay (SRB), A549/ATCC; format: cell-based; details: Homo sapiens, non-small cell lung cancer, 48 h, read-out: Log10 GI50 (converted)
[21] = tested on: UO-31; assay: NCI 60 cell line panel screening assay (SRB), UO-31; format: cell-based; details: Homo sapiens, UO-31, renal cancer, 48 h
[22] = tested on: OVCAR-4; assay: cells; format: cell-based; details: Homo sapiens
[23] = tested on: HL-60(TB); assay: cells; format: cell-based; details: Homo sapiens, HL-60, 48 h
[24] = tested on: HS 578T; assay: cells; format: cell-based; details: Homo sapiens, 48 h, read-out: Log10 GI50 (converted)
[25] = tested on: RPMI-8226; assay: NCI 60 cell line panel screening assay (SRB), RPMI-8226; format: cell-based; details: Homo sapiens; for GI50: read-out: Log10 GI50 (converted)
[26] = tested on: U251; assay: cells; format: cell-based; details: Homo sapiens, read-out: Log10 GI50 (converted)
[27] = tested on: NCI-H460; assay: cells; format: cell-based; details: Homo sapiens, NCI-H460, non-small cell lung cancer, 48 h
[28] = tested on: EKVX; assay: NCI 60 cell line panel screening assay (SRB), EKVX; format: cell-based; details: Homo sapiens, non-small cell lung cancer, 48 h, read-out: Log10 GI50 (converted)
[29] = tested on: ACHN; assay: NCI 60 cell line panel screening assay (SRB), ACHN; format: cell-based; details: Homo sapiens, renal cancer, 48 h, read-out: Log10 GI50 (converted)
[30] = read-out: Log10 GI50 (converted)
[31] = read-out: Log10 TGI (converted)
[32] = read-out: Log10 LC50 (converted)
[33] = MOLT-4, 48 h, read-out: Log10 LC50 (converted)
[34] = MOLT-4, read-out: concentration for cytotoxicity (PG -50)

SMILES: C[C@H]1[C@@H](F)O[C@@H]2O[C@@]3(C)CC[C@H]4[C@H](C)CC[C@@H]1[C@@]24OO3 [Compound VI, 10β-Fluoro-10-deoxoartemisinin]
- GI50 [1, 30]: 2.34 µM
- IC (TGI) ([1]; read-out: Log10 TGI): > 100 µM
- CC50 ([2]; KM12, 48 h, read-out: Log10 LC50 (converted)): > 100 µM
- GI50 ([2]; KM12, colon cancer, 48 h): 0.437 µM
- IC (TGI) [3, 31]: 61.7 µM
- CC50 ([4]; MCF7, 48 h, read-out: Log10 LC50 (converted)): > 100 µM
- IC (TGI) ([4]; MCF7/ADR-RES, breast cancer, 48 h, read-out: Log10 TGI): > 100 µM
- CC50 [5]: > 100 µM
- GI50 [6, 30]: 13.2 µM
- CC50 [6, 32]: > 100 µM
- CC50 ([7]; RXF 393, 48 h, read-out: Log10 LC50 (converted)): > 100 µM
- IC (TGI) [7]: > 100 µM
- CC50 ([8]; SNB-75, 48 h): > 100 µM
- IC (TGI) ([8]; SNB-75, CNS cancer, 48 h, read-out: Log10 TGI): > 100 µM
- CC50 [9]: > 100 µM
- CC50 ([10]; SF-295, 48 h, read-out: Log10 LC50 (converted)): > 100 µM
- GI50 ([10]; SF-295, CNS cancer, 48 h, read-out: Log10 GI50 (converted)): 17 µM
- IC (TGI) ([10]; SF-295, CNS cancer, 48 h, read-out: Log10 TGI): > 100 µM
- CC50 [11, 33]: > 100 µM
- CC50 [11, 34]: > 100 µM
- IC50 [11]: ~0.1 µM
- CC50 ([12]; NCI-H226, 48 h, read-out: Log10 LC50 (converted)): > 100 µM
- IC (TGI) ([12]; NCI-H226, non-small cell lung cancer, 48 h, read-out: Log10 TGI): > 100 µM
- GI50 [13]: 2.34 µM
- IC (TGI) [13]: > 100 µM

SMILES: CC1CCC2C(C)C(CC(=O)c3ccc(C(=O)CC4OC5OC6(C)CCC7C(C)CCC(C4C)C57OO6)cc3)OC3OC4(C)CCC1C32OO4 (stereo not drawn) [Dimer 38]
- GI50 [14]: < 0.01 µM
- IC50 [15]: 0.0019 µM
- GI50 ([2]; KM12, 48 h): < 0.01 µM
- GI50 [16, 30]: < 0.01 µM
- CC50 [16, 32]: > 100 µM
- GI50 [17, 30]: < 0.01 µM
- CC50 [17, 32]: > 100 µM
- GI50 [18, 30]: < 0.01 µM
- GI50 ([8]; SNB-75, CNS cancer, 48 h): 0.117 µM
- CC50 ([8]; SNB-75, CNS cancer, 48 h): > 100 µM
- GI50 ([11]; MOLT-4, 48 h): < 0.01 µM
- CC50 [11, 33]: > 100 µM
- CC50 [11, 34]: > 100 µM
- IC50 [11]: < 0.1 µM
- GI50 ([19]; SW-620, 48 h): < 0.01 µM
- CC50 ([19]; SW-620, colon cancer, 48 h, read-out: Log10 LC50 (converted)): > 100 µM
- GI50 [20]: < 0.01 µM
- GI50 [21, 30]: 0.024 µM
- CC50 [21, 32]: > 100 µM
- IC (TGI) ([22]; OVCAR-4, 48 h, read-out: Log10 TGI): > 100 µM
- CC50 ([22]; OVCAR-4, ovarian cancer, 48 h, read-out: Log10 LC50 (converted)): > 100 µM
- GI50 [23, 30]: < 0.01 µM
- CC50 [23, 32]: > 100 µM
- GI50 ([24]; Hs-578T): < 0.01 µM
- CC50 ([25]; RPMI-8226, 48 h, read-out: Log10 LC50 (converted)): > 100 µM
- GI50 ([25]; RPMI-8226, leukemia, 48 h): < 0.01 µM
- IC (TGI) ([25]; RPMI-8226, leukemia, 48 h, read-out: Log10 TGI): < 0.01 µM
- GI50 ([26]; U-251, 48 h): < 0.01 µM

SMILES: C[C@@H]1CC[C@H]2[C@@H](C)C(=O)O[C@@H]3O[C@@]4(C)CC[C@@H]1[C@]32OO4 [Artemisinin]
- GI50 ([2]; KM12, colon cancer, 48 h): > 100 µM
- GI50 [3, 30]: > 100 µM
- GI50 [27, 30]: > 100 µM
- IC (TGI) [27, 31]: > 100 µM
- GI50 [28]: > 100 µM
- IC (TGI) ([18]; read-out: Log10 TGI): > 100 µM
- IC (TGI) [7]: > 100 µM
- GI50 ([8]; SNB-75, CNS cancer, 48 h): > 100 µM
- GI50 [29]: > 100 µM
- GI50 ([11]; MOLT-4, 48 h): 18.6 µM
- IC (TGI) ([11]; MOLT-4, 48 h, read-out: Log10 TGI): 100 µM
- IC50 [11]: > 100 µM
- GI50 ([19]; SW-620, colon cancer, 48 h): > 100 µM
- GI50 ([12]; NCI-H226, non-small cell lung cancer, 48 h, read-out: Log10 GI50 (converted)): > 100 µM
- GI50 ([24]; HS 578T, breast cancer): > 100 µM
- GI50 ([25]; RPMI-8226, leukemia, 48 h): > 100 µM
- GI50 [13]: > 100 µM
- IC (TGI) [13]: > 100 µM
- GI50 ([26]; U-251, U251, CNS cancer, 48 h): > 100 µM
